Measured values published in US20160291027A1, “METHODS FOR […] ABILITY OF A Z[…] COMPOUND TO TREAT CANCER” (Eisai R&D Management Co., Ltd., priority 2007, published 2016).

Assays:
Format in all cases: cell-based
[1] = test system: IL-6 secretion by LOX human melanoma cells; experiment: IL-6 secretion by LOX melanoma cells (ELISA); conditions: 24 hours
Method: (§1) Compound 106 (5.0 mg) was weighed and dissolved in 100% anhydrous DMSO (dimethyl sulfoxide, Sigma-Aldrich®, St. Louis, Mo.) to produce a 10 mmol/L stock solution of 3.89 mg/mL. Aliquots of the 10 mmol/L stock solution were stored at −80° C. Then, on each day of an experiment, an aliquot of the stock solution was thawed and diluted 1:10 by adding RPMI-1640 culture medium to obtain a 1 mmol/L solution. Four serial 1:10 dilutions were made from 1 mmol/L working solution by adding 10% DMSO in RPMI-1640 culture medium to obtain 4 additional working solutions. Each of these working stock solutions was further diluted with culture media to obtain diluted working solutions ranging from 1 nmol/L to 10,000 nmol/L. Five mL of each of these diluted working solutions was added to each dish.
(§2) LOX human melanoma cells were originally obtained from the DCTD Tumor Repository (Frederick, Md.). The cells were grown in monolayer cultures in RPMI-1640 growth media containing 10% fetal bovine serum (FBS) at 37° C. in a 5% CO2 humidified incubator.
(§3) LOX human melanoma cells were plated at 1×10^6 cells into 100 mm dishes. After 48 hours, cells were washed three times with phosphate buffered saline (PBS) and were cultured with RPMI-1640 medium containing 0.1% FBS for another 24 hours. After removing the cell culture medium, fresh RPMI-1640 medium containing Compound 106 (1, 10, 100, 1000, or 10,000 nmol/L) was added to each culture dish and incubated for 24 hours (see Table 5). The control received 0.1% DMSO in RPMI-1640 culture medium alone to measure spontaneous secretion of IL-6 and IL-8. Three separate experiments were performed in duplicate to calculate the mean±SEM.
(§4) After a 24 hour incubation with Compound 106 or 0.1% DMSO, 5 mL of cell culture supernatant was collected. Any particulate material was removed by centrifugation. All samples were stored in the −80° C. freezer until analysis. Human IL-6 or IL-8 was determined using an ELISA kit (Human IL-8 ELISA Set, Catalog No. 555244, BD Biosciences, San Diego, Calif. and Human IL-6 ELISA Set, Catalog No. 555220, BD Biosciences, San Diego, Calif.) with the assay procedure provided by the kits. Absorbance was read on a VERSAMAX™ (Molecular Devices, now part of MDS Analytical Technologies, Sunnyvale Calif.).
(§5) After removing the cell culture supernatant, 1.0 mL of trypsin was added to the cells for 3 minutes, and then 4 mL of media containing 10% FBS was added for cell counting. Cells were counted using a hematocytometer (Bright Line Counting Chamber, Hausser Scientific, Horsham, Pa.) with a depth of 0.1 mm. The total number of cells was calculated as follows:
(§6) Total number of cells in 5 mL=C×10^4/mL×5 mL(C: actual cell count in 1 mm^2)
(§7) The level of IL-6 or IL-8 was determined as ng/1×10^6 cells. Inhibition of IL-6 or IL-8 secretion by Compound 106 was expressed as percent of control using the formula below:
(§8) Percent of control=(value of treatment−mean value of blank)/(value of control−mean value of blank)×100
(§9) The software, Graphpad Prism® (ver. 4, San Diego, Calif.) was used for calculation of mean IC50 values.

[2] = test system: IL-8 secretion by LOX human melanoma cells; experiment: IL-8 secretion by LOX melanoma cells (ELISA); conditions: 24 hours
Method: as §1, §2, §3, §4, §5, §6, §7, §8, §9

[3] = test system: BRAF mutant (V600E) melanoma cell lines; experiment: Cell growth assay in BRAF mutant (V600E) melanoma cell lines; conditions: continuous presence of compound
Method: In a separate experiment, Compound 106 was tested in a panel of BRAF mutant (V600E) melanoma cell lines. (This set of cell lines represents 17 additional cell lines relative to FIG. 3C.) The melanoma cell lines were introduced into 96-well plates and grown in the absence or continuous presence of compound 106. IC50 values were determined as the concentration of a substance which inhibits cell growth by 50% compared to untreated cell populations.

SMILES: CCNc1cc(O)c2c(c1)/C=C/C[C@H](O)[C@H](O)C(=O)/C=C\[C@@H](C)[C@H](C)OC2=O [Compound 106]
- IL-6 (ng/million cells) Mean ([1]; 1 nmol/L): 9.9 ng/million cells
- IL-6 (pg/million cells) Experiment 1 ([1]; 1 nmol/L): 5890 pg/million cells
- IL-6 (pg/million cells) Experiment 2 ([1]; 1 nmol/L): 13741 pg/million cells
- IL-6 (pg/million cells) Experiment 3 ([1]; 1 nmol/L): 10140 pg/million cells
- Protein level of IL-6, Percent (%) of control Experiment 1 ([1]; 1 nmol/L): 46.1%
- Protein level of IL-6, Percent (%) of control Experiment 2 ([1]; 1 nmol/L): 53.6%
- Protein level of IL-6, Percent (%) of control Experiment 3 ([1]; 1 nmol/L): 115.0%
- IL-6 (ng/million cells) Mean ([1]; 10 nmol/L): 8.7 ng/million cells
- IL-6 (pg/million cells) Experiment 1 ([1]; 10 nmol/L): 3253 pg/million cells
- IL-6 (pg/million cells) Experiment 2 ([1]; 10 nmol/L): 12105 pg/million cells
- IL-6 (pg/million cells) Experiment 3 ([1]; 10 nmol/L): 10745 pg/million cells
- Protein level of IL-6, Percent (%) of control Experiment 1 ([1]; 10 nmol/L): 21.5%
- Protein level of IL-6, Percent (%) of control Experiment 2 ([1]; 10 nmol/L): 47.1%
- Protein level of IL-6, Percent (%) of control Experiment 3 ([1]; 10 nmol/L): 121.3%
- IL-6 (ng/million cells) Mean ([1]; 100 nmol/L): 0.5 ng/million cells
- IL-6 (pg/million cells) Experiment 1 ([1]; 100 nmol/L): 347 pg/million cells
- IL-6 (pg/million cells) Experiment 2 ([1]; 100 nmol/L): 643 pg/million cells
- IL-6 (pg/million cells) Experiment 3 ([1]; 100 nmol/L): 485 pg/million cells
- Protein level of IL-6, Percent (%) of control Experiment 1 ([1]; 100 nmol/L): 2.9%
- Protein level of IL-6, Percent (%) of control Experiment 2 ([1]; 100 nmol/L): 2.5%
- Protein level of IL-6, Percent (%) of control Experiment 3 ([1]; 100 nmol/L): 5.5%
- IL-6 (ng/million cells) Mean ([1]; 1,000 nmol/L): 0.6 ng/million cells
- IL-6 (pg/million cells) Experiment 1 ([1]; 1,000 nmol/L): 547 pg/million cells
- IL-6 (pg/million cells) Experiment 2 ([1]; 1,000 nmol/L): 986 pg/million cells
- IL-6 (pg/million cells) Experiment 3 ([1]; 1,000 nmol/L): 257 pg/million cells
- Protein level of IL-6, Percent (%) of control Experiment 1 ([1]; 1,000 nmol/L): 4.6%
- Protein level of IL-6, Percent (%) of control Experiment 2 ([1]; 1,000 nmol/L): 3.8%
- Protein level of IL-6, Percent (%) of control Experiment 3 ([1]; 1,000 nmol/L): 2.9%
- IL-6 (ng/million cells) Mean ([1]; 10,000 nmol/L): 0.2 ng/million cells
- IL-6 (pg/million cells) Experiment 1 ([1]; 10,000 nmol/L): 165 pg/million cells
- IL-6 (pg/million cells) Experiment 2 ([1]; 10,000 nmol/L): 337 pg/million cells
- IL-6 (pg/million cells) Experiment 3 ([1]; 10,000 nmol/L): 132 pg/million cells
- Protein level of IL-6, Percent (%) of control Experiment 1 ([1]; 10,000 nmol/L): 1.3%
- Protein level of IL-6, Percent (%) of control Experiment 2 ([1]; 10,000 nmol/L): 1.3%
- Protein level of IL-6, Percent (%) of control Experiment 3 ([1]; 10,000 nmol/L): 1.6%
- activity at 0.001 µM ([1]; Homo sapiens, LOX, 1 nmol/L, read-out: Protein level of IL-6, Mean % of control): 72.2%
- activity at 0.01 µM ([1]; Homo sapiens, LOX, 10 nmol/L, read-out: Protein level of IL-6, Mean % of control): 65%
- activity at 0.1 µM ([1]; Homo sapiens, LOX, 100 nmol/L, read-out: Protein level of IL-6, Mean % of control): 3.6%
- activity at 1 µM ([1]; Homo sapiens, LOX, 1,000 nmol/L, read-out: Protein level of IL-6, Mean % of control): 3.8%
- activity at 10 µM ([1]; Homo sapiens, LOX, 10,000 nmol/L, read-out: Protein level of IL-6, Mean % of control): 1.4%
- IC50 ([1]; Homo sapiens, LOX melanoma cell line, read-out: mean calculated IC50, IL-6 protein level): 21.8 nM
- IL-8 (ng/million cells) Mean ([2]; 1 nmol/L): 128.8 ng/million cells
- IL-8 (pg/million cells) Experiment 1 ([2]; 1 nmol/L): 112318 pg/million cells
- IL-8 (pg/million cells) Experiment 2 ([2]; 1 nmol/L): 213228 pg/million cells
- IL-8 (pg/million cells) Experiment 3 ([2]; 1 nmol/L): 60753 pg/million cells
- Protein level of IL-8, Percent (%) of control Experiment 1 ([2]; 1 nmol/L): 106.9%
- Protein level of IL-8, Percent (%) of control Experiment 2 ([2]; 1 nmol/L): 123.9%
- Protein level of IL-8, Percent (%) of control Experiment 3 ([2]; 1 nmol/L): 163.4%
- IL-8 (ng/million cells) Mean ([2]; 10 nmol/L): 60.2 ng/million cells
- IL-8 (pg/million cells) Experiment 1 ([2]; 10 nmol/L): 47049 pg/million cells
- IL-8 (pg/million cells) Experiment 2 ([2]; 10 nmol/L): 90632 pg/million cells
- IL-8 (pg/million cells) Experiment 3 ([2]; 10 nmol/L): 42942 pg/million cells
- Protein level of IL-8, Percent (%) of control Experiment 1 ([2]; 10 nmol/L): 44.8%
- Protein level of IL-8, Percent (%) of control Experiment 2 ([2]; 10 nmol/L): 52.7%
- Protein level of IL-8, Percent (%) of control Experiment 3 ([2]; 10 nmol/L): 115.5%
- IL-8 (ng/million cells) Mean ([2]; 100 nmol/L): 3.1 ng/million cells
- IL-8 (pg/million cells) Experiment 1 ([2]; 100 nmol/L): 3079 pg/million cells
- IL-8 (pg/million cells) Experiment 2 ([2]; 100 nmol/L): 3249 pg/million cells
- IL-8 (pg/million cells) Experiment 3 ([2]; 100 nmol/L): 3101 pg/million cells
- Protein level of IL-8, Percent (%) of control Experiment 1 ([2]; 100 nmol/L): 2.9%
- Protein level of IL-8, Percent (%) of control Experiment 2 ([2]; 100 nmol/L): 1.9%
- Protein level of IL-8, Percent (%) of control Experiment 3 ([2]; 100 nmol/L): 8.3%
- IL-8 (ng/million cells) Mean ([2]; 1,000 nmol/L): 2.4 ng/million cells
- IL-8 (pg/million cells) Experiment 1 ([2]; 1,000 nmol/L): 3390 pg/million cells
- IL-8 (pg/million cells) Experiment 2 ([2]; 1,000 nmol/L): 2273 pg/million cells
- IL-8 (pg/million cells) Experiment 3 ([2]; 1,000 nmol/L): 1494 pg/million cells
- Protein level of IL-8, Percent (%) of control Experiment 1 ([2]; 1,000 nmol/L): 3.2%
- Protein level of IL-8, Percent (%) of control Experiment 2 ([2]; 1,000 nmol/L): 1.3%
- Protein level of IL-8, Percent (%) of control Experiment 3 ([2]; 1,000 nmol/L): 4.0%
- IL-8 (ng/million cells) Mean ([2]; 10,000 nmol/L): 2.9 ng/million cells
- IL-8 (pg/million cells) Experiment 1 ([2]; 10,000 nmol/L): 5179 pg/million cells
- IL-8 (pg/million cells) Experiment 2 ([2]; 10,000 nmol/L): 1384 pg/million cells
- IL-8 (pg/million cells) Experiment 3 ([2]; 10,000 nmol/L): 2179 pg/million cells
- Protein level of IL-8, Percent (%) of control Experiment 1 ([2]; 10,000 nmol/L): 4.9%
- Protein level of IL-8, Percent (%) of control Experiment 2 ([2]; 10,000 nmol/L): 0.8%
- Protein level of IL-8, Percent (%) of control Experiment 3 ([2]; 10,000 nmol/L): 5.9%
- activity at 0.001 µM ([2]; Homo sapiens, LOX, 1 nmol/L, read-out: Protein level of IL-8, Mean % of control): 131%
- activity at 0.01 µM ([2]; Homo sapiens, LOX, 10 nmol/L, read-out: Protein level of IL-8, Mean % of control): 71%
- activity at 0.1 µM ([2]; Homo sapiens, LOX, 100 nmol/L, read-out: Protein level of IL-8, Mean % of control): 4.4%
- activity at 1 µM ([2]; Homo sapiens, LOX, 1,000 nmol/L, read-out: Protein level of IL-8, Mean % of control): 2.9%
- activity at 10 µM ([2]; Homo sapiens, LOX, 10,000 nmol/L, read-out: Protein level of IL-8, Mean % of control): 3.9%
- IC50 ([2]; Homo sapiens, LOX melanoma cell line, read-out: mean calculated IC50, IL-8 protein level): 10.5 nM
- Sensitivity of cell lines with BRAF mutation and wild-type PTEN status [3]: very sensitive
